Assay results published in patent US7160874B2, “Phenylalanine derivatives” (Ajinomoto Co., Inc., priority 1999, dated 2007).

Columns and labels:
[1] = biological target: T1, integrin α4β1 (Homo sapiens, UniProt P05556+P13612); test: VCAM antagonist activity (VCAM-1/α4β1 binding assay); type: cell-based; conditions: Jurkat cells binding to VCAM-1; read-out: VCAM antagonistic activity (IC50) α4β1
T1 construct: cell strain Jurkat (ATCC TIB-152) of human T cells, known to express integrin α4β1; host or cells: Jurkat (human T cell line)
T1 sequence (P05556 21-798, one chain of several): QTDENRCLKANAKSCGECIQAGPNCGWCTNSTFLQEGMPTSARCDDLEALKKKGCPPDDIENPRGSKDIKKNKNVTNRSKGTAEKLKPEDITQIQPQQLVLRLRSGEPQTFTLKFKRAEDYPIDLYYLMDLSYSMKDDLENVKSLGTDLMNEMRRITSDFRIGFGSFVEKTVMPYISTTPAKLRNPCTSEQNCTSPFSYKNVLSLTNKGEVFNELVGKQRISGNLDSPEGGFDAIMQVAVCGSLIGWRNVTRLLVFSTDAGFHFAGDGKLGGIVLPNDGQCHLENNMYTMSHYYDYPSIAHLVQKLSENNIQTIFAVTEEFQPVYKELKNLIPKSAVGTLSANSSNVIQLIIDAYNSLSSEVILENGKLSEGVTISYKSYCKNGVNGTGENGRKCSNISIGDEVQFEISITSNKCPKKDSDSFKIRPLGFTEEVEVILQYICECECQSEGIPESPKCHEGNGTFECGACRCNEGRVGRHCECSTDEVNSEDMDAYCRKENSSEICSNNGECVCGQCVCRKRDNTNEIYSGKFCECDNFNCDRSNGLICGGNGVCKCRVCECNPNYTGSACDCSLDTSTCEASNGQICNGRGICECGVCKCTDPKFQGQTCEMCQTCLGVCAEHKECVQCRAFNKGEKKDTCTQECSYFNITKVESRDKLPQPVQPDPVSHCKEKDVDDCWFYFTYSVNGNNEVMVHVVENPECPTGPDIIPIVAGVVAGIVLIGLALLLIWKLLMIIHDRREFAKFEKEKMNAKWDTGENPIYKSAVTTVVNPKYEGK
Protocol: (Test Example) VCAM Antagonist Activity (VCAM-1/α4β1 Binding Assay):
The capacity of a test substance antagonistic to the binding of cell strain Jurkat (ATCC TIB-152) of human T cells, known to express integrin α4β1, to VCAM-1 was determined.
(§1) 100 μl/well of a solution (500 ng/ml) of recombinant human VCAM-1 (R & D systems) solution diluted with buffer A (0.1 M NaHCO3, pH 9.6) was added to a micro titer plate having 96 wells (Nunc Maxisorp). After the incubation at 4° C. overnight, unbound VCAM-1 was removed by washing once with PBS. After completion of the washing, a buffer (buffer B) obtained by diluting Block Ace® (Dainippon Pharmaceutical Co., Ltd.) with PBS to 1/4 concentration was added in an amount of 150 μl/well. After the incubation at room temperature for 1 hour, buffer B was removed and the plate was washed with PBS once.
Jurkat cells were washed with Dulbecco modified Eagle medium (SIGMA, hereinafter referred to as “DMEM”) twice and then incubated in DMEM containing 10 μg/ml of Calcein-AM (Wako Pure Chemical Industries, Ltd.) at 37° C. in dark place for 30 minutes to label with fluorescence. The cells were again suspended in a binding buffer (20 mM HEPES, DMEM containing 0.1% BSA).
(§2) 50 μl of a test substance of various concentrations obtained by the dilution with the binding buffer was added to the plate. Immediately thereafter, 50 μl (final volume: 100 μl/well) of the fluorescent Jurkat cells (4×10^6 cells/ml) were added thereto, and they were incubated at room temperature for 30 minutes. After the shaking on a plate shaker (IKA MTS-4) at 800 rpm for 30 seconds, the solution was immediately removed to remove the unbound cells. The fluorescence quantity of the bound cells remaining in the wells was determined with a fluorescent plate reader (Wallac 1420 ARVO multi-label counter) (filter excitation wave length: 485 nm, emission wave length: 535 nm). The fluorescent strength thus obtained is proportional to the number of Jurkat cells bound to VCAM-1 and remaining on the plate. The binding rate of each test material in various concentrations was determined while the fluorescent strength of the test material-free well was determined to be 100%. The concentration IC50 for the 50% binding inhibition was calculated.
(§3) The activities were classified into group A wherein IC50 was 0.02 μmol/l or below, group B wherein IC50 was higher than 0.02 μmol/l and not above 0.1 μmol/l, group C wherein IC50 was higher than 0.1 μmol/l and not above 2 μmol/l, and group D wherein IC50 was higher than 2 μmol/l and not above 10 μmol/l.

[2] = biological target: T2, integrin α4β7 (Homo sapiens, UniProt P13612+P26010); test: VCAM antagonistic activity (VCAM-1/α4β7 binding assay); type: cell-based; conditions: RPMI-8866 cells binding to VCAM-1; read-out: VCAM antagonistic activity (IC50) α4β7
T2 construct: lymphoma cell strain RPMI-8866 of human B cells, known to express integrin α4β7; endogenous in cells; host or cells: RPMI-8866 (human B lymphoma cell line)
T2 sequence (P13612 34-1032): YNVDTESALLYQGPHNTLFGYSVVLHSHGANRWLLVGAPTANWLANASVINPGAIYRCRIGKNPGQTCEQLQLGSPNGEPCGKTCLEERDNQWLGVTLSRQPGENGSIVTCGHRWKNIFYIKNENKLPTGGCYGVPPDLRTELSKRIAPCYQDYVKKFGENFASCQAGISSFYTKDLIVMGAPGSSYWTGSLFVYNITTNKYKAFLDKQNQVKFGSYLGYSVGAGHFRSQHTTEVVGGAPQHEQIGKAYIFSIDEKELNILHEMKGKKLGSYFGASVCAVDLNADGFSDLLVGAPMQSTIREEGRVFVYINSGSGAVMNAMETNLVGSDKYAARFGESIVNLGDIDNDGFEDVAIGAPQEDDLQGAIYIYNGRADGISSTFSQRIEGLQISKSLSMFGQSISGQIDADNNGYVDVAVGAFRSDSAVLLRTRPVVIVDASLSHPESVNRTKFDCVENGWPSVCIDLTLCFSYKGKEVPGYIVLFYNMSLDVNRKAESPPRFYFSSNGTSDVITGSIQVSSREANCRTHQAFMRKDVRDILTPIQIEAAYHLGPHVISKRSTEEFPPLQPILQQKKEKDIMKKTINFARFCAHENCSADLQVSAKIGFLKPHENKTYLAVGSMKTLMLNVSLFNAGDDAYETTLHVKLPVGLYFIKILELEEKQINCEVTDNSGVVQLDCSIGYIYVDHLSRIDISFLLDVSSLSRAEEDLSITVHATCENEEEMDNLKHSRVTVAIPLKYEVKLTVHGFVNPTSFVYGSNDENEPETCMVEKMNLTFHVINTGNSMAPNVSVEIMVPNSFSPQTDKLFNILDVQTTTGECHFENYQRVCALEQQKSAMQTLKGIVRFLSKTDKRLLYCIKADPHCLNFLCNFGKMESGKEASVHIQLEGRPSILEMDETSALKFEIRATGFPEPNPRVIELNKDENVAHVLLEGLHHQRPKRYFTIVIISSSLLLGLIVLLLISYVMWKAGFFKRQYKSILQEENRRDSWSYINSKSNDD
T2 sequence (P26010 20-798): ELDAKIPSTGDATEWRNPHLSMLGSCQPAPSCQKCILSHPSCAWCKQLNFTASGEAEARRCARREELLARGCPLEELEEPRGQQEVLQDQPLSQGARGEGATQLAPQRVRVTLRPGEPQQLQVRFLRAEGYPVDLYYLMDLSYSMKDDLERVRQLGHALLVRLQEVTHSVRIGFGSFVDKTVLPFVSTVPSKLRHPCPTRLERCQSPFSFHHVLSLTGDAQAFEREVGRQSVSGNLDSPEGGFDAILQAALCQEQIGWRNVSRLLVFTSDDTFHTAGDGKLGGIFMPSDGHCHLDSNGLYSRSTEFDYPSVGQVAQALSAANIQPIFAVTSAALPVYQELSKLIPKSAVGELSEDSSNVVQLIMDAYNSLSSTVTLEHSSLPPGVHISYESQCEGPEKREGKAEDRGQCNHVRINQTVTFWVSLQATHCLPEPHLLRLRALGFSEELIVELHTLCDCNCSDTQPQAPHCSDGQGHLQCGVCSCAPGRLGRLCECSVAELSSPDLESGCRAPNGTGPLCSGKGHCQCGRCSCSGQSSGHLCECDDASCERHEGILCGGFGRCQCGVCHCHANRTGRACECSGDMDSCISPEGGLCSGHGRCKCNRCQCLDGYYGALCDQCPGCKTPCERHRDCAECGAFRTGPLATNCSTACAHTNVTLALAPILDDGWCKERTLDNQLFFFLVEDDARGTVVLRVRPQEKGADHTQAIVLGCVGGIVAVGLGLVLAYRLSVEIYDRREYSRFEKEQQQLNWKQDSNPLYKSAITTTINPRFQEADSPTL
Protocol: (Test Example) VCAM Antagonistic Activity (VCAM-1/α4β7 Binding Assay):
The capacity of a test substance antagonistic to the binding of lymphoma cell strain RPMI-8866 of human B cells, known to express integrin α4β7, to VCAM-1 was determined.
as §1
RPMI-8866 cells were incubated in Dulbecco modified Eagle medium containing 10 μg/ml of Calcein-AM (Wako Pure Chemical Industries, Ltd.) (SIGMA, hereinafter referred to as “DMEM”) at 37° C. for 30 minutes to label with fluorescence. The cells were again suspended in a binding buffer (20 mM HEPES, DMEM containing 0.1% BSA) containing 4 mM of MnCl2.
as §2, with “RPMI-8866” for “Jurkat”
as §3

| IC50 [1] [nM] | IC50 [2] [nM] | Compound |
| --- | --- | --- |
| 20 to 100 | < 20 | CCC(CC)(C(=O)N[C@@H](Cc1ccc(OCc2c(Cl)cccc2Cl)cc1)C(=O)O)C(=O)N1CC[C@@H](O)C1 [Example 35] |
| 100 to 2000 | 20 to 100 | CCC(CC)(C(=O)N[C@@H](Cc1ccc(OCc2c(Cl)cccc2Cl)cc1)C(=O)O)C(=O)N1CCSCC1 [Example 36] |
| 100 to 2000 | 20 to 100 | CCC(CC)(C(=O)N[C@@H](Cc1ccc(OCc2c(Cl)cccc2Cl)cc1)C(=O)O)C(=O)N(C)CCN(C)C [Example 40] |
| 100 to 2000 | < 20 | CCC(CC)(C(=O)N[C@@H](Cc1ccc(OCc2c(Cl)cccc2Cl)cc1)C(=O)O)C(=O)N1CC[C@@H](N(C)C)C1 [Example 44] |
| 100 to 2000 | 20 to 100 | CCC(CC)(C(=O)N[C@@H](Cc1ccc(OCc2c(Cl)cccc2Cl)cc1)C(=O)O)C(=O)N1CCN(C=O)CC1 [Example 45] |
| 100 to 2000 | < 20 | CCC(CC)(C(=O)N[C@@H](Cc1ccc(OCc2c(Cl)cccc2Cl)cc1)C(=O)O)C(=O)N1C[C@H](O)C[C@H]1C(=O)OC [Example 46] |
| 100 to 2000 | 20 to 100 | CCC(CC)(C(=O)N[C@@H](Cc1ccc(OCc2c(Cl)cccc2Cl)cc1)C(=O)O)C(=O)N1CCC(O)CC1 [Example 49] |
| 100 to 2000 | 20 to 100 | CCC(CC)(C(=O)N[C@@H](Cc1ccc(OCc2c(Cl)cccc2Cl)cc1)C(=O)O)C(=O)N1CCC[C@H]1COC [Example 50] |
| 100 to 2000 | < 20 | CCC(CC)(C(=O)N[C@@H](Cc1ccc(OCc2c(Cl)cccc2Cl)cc1)C(=O)O)C(=O)N1CCC[C@H]1CN1CCCC1 [Example 53] |
| 20 to 100 | < 20 | CCC(CC)(C(=O)N[C@@H](Cc1ccc(OCc2c(Cl)cccc2Cl)cc1)C(=O)O)C(=O)N1CC[C@@H](NC(C)=O)C1 [Example 54] |
| 20 to 100 | < 20 | CCC(CC)(C(=O)N[C@@H](Cc1ccc(OCc2c(Cl)cccc2Cl)cc1)C(=O)O)C(=O)N1CC[C@H](NC(C)=O)C1 [Example 55] |
| 100 to 2000 | < 20 | CCC(CC)(C(=O)NC(Cc1ccc(OCc2c(Cl)cccc2Cl)cc1)C(=O)O)C(=O)N1CCCC1C(=O)OC (stereo not shown) [Example 56] |
| 100 to 2000 | 100 to 2000 | O=C(O)[C@H](Cc1ccc(OCc2c(Cl)cccc2Cl)cc1)NC(=O)C1(C(=O)N2CCCC2)CCOCC1 [Example 58] |
| 100 to 2000 | 20 to 100 | O=C1CCN(C(=O)C2(C(=O)N[C@@H](Cc3ccc(OCc4c(Cl)cccc4Cl)cc3)C(=O)O)CC2)C1 [Example 59] |
| 100 to 2000 | 20 to 100 | CCC(CC)(C(=O)N[C@@H](Cc1ccc(OCc2c(Cl)cccc2Cl)cc1)C(=O)O)C(=O)N1CCCN(C=O)CC1 [Example 61] |
| 100 to 2000 | 20 to 100 | CCC(CC)(C(=O)N[C@@H](Cc1ccc(OCc2c(Cl)cccc2Cl)cc1)C(=O)O)C(=O)N1CC[C@@H](NC(=O)C(F)(F)F)C1 [Example 63] |
| 100 to 2000 | 20 to 100 | CCC(CC)(C(=O)N[C@@H](Cc1ccc(OCc2c(Cl)cccc2Cl)cc1)C(=O)O)C(=O)N1CC[C@@H](NC)C1 [Example 64] |
| 100 to 2000 | < 20 | CCC(CC)(C(=O)N[C@@H](Cc1ccc(OCc2c(Cl)cccc2Cl)cc1)C(=O)O)C(=O)N1CC[C@H](O)C1 [Example 65] |
| 100 to 2000 | 20 to 100 | CCC(CC)(C(=O)N[C@@H](Cc1ccc(OCc2c(Cl)cccc2Cl)cc1)C(=O)O)C(=O)N1CC[C@H](N)C1 [Example 66] |
| 100 to 2000 | 20 to 100 | CCC(CC)(C(=O)N[C@@H](Cc1ccc(OCc2c(Cl)cccc2Cl)cc1)C(=O)O)C(=O)N1CCC[C@H]1C(N)=O [Example 67] |

| Compound | IC50 [1] [nM] | IC50 [2] [nM] |
| --- | --- | --- |
| CCC(CC)(C(=O)N[C@@H](Cc1ccc(OCc2c(Cl)cccc2Cl)cc1)C(=O)O)C(=O)N1CCC(C(N)=O)CC1 [Example 39] | 100 to 2000 | 20 to 100 |
| CCN(C)C(=O)C(CC)(CC)C(=O)N[C@@H](Cc1ccc(OCc2c(Cl)cccc2Cl)cc1)C(=O)O [Example 41] | 100 to 2000 | 20 to 100 |
| CCC(CC)(C(=O)N[C@@H](Cc1ccc(OCc2c(Cl)cccc2Cl)cc1)C(=O)O)C(=O)N1CCCNCC1 [Example 42] | 100 to 2000 | 20 to 100 |
